# Patent publication US5324747A, “N-substituted anilines, inhibitors of phospholipases A2” (Hoffmann-La Roche Inc., priority 1992, dated 1994)
# Counter-ions that a name gives are not always drawn.
# Assays:
# PLA2 Rat Paw Edema = test: Phospholipase A2 Rat Paw Edema; assay type: in vivo, Lewis rats; details: Rattus norvegicus; 2 hr; 30 mg/kg; read-out: % Inhib of PLA2 Rat Paw Edema 2 hr (30 mg/kg)
# Protocol: Phospholipase A2 Rat Paw Edema
# Representation compounds of the invention were tested in rats to determine their ability to inhibit the acute inflammatory response induced by the injection of snake venom phospholipase A2. Test compounds are administered intraperitoneally or orally to groups of seven Lewis rats (≈200 gm) 1 hr prior to phospholipase A2 administration. The test compounds are dissolved in dimethyl sulfoxide for intraperitoneal administration and dissolved or suspended in Labrafil M-1944CS for oral administration. At 0 hr, 5 ug (10 units) of purified phospholipase A2 from Naja naja venom (Sigma Chem. Co.) dissolved in 0.1 mL of pyrogen free saline is injected subplantarly into the right hind paw to elicit the inflammatory response. The volume (in mL) of the right hind paw is measured by immersion of the paw to the level of the lateral malleolus in an aqueous plethysmometer immediately prior to the injection of phospholipase A2 and then at 0.5, 2 and 4 hr after phospholipase A2 injection. The paw edema is calculated by subtracting the zero time reading from the readings taken after injection. The percent change of the edema volume from the vehicle treated control is calculated to determine the activity of the test compound. Statistical analysis of the mean paw edema values of the control versus the treated groups is performed using Student's t-test. Significance of changes from mean value for vehicle-treated animals (*p<0.05, **p<0.01, ***p<0.001, ns/not significant).
# HSF-PLA2 = target: T1, HSF-PLA2 (Homo sapiens, UniProt P14555); test: Assay for Inhibition of HSF-PLA2 In Vitro; assay type: biochemical; details: for IC50: read-out: Inhib of HSF-PLA2 IC50
# T1 construct: extracellular enzyme obtained from human synovial fluid (HSF-PLA2); from tissue; host or cells: pooled human synovial fluid, added at 0.1% (v/v)
# T1 sequence (P14555 21-144): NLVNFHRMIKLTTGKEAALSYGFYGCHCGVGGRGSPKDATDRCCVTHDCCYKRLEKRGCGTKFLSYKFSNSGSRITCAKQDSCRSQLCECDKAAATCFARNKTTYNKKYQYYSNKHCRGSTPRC
# Protocol: Assay for Inhibition of HSF-PLA2 In Vitro
# The PLA2 used in this test is the extracellular enzyme obtained from human synovial fluid (HSF-PLA2).
# The optimal conditions which were developed for the assay of HSF-PLA2 inhibitors are summarized as follows. […] The reaction was initiated by the addition of HSF-PLA2 and duplicate samples of the mixture were incubated in 13×100 mm glass tubes with shaking for 30 minutes at 37° C. […] The extraction of lipids from the stopped reaction mixture was conducted by the further additions of […] of chloroform and 1 ml of water with mixing. After centrifuging, the lower chloroform phase was transferred to smaller glass tubes and the solvent was evaporated to dryness with a nitrogen stream. The extracted lipid residue was redissolved in 50 μl of a solution containing carrier oleic acid (0.2 mg/ml) of chloroform-methanol [9 to 1, v/v]). The whole lipid extract was applied to a preactivated (30 minutes at 110° C.) silica gel-impregnated glass fiber thin layer chromatography sheet (ITLC type SG sheet from Gelman Sciences, Inc., Ann Arbor, Mich.) using hexane-acetic acid (100 to 1, v/v) as the developing solvent. This TLC system rapidly (6 minutes) resolved the enzymatically released product, ^14 C-oleic acid, from the unreacted ^14 C-phospholipid substrate. The unsaturated lipids were located on the chromatogram by a brief exposure to iodine vapor. […] A control incubation of substrate in the absence of HSF-PLA2 was performed in each experiment.
# [1] = test system: Croton Oil Mouse Ear Edema; test: Croton Oil Mouse Ear Edema Test; assay type: in vivo, CD-1 mice; details: topical, coapplied, 6 hours
# [2] = read-out: Inhib of HSF-PLA2, % inhibition
Structure (SMILES),inhibition in vivo at 30 mg/kg (PLA2 Rat Paw Edema),IC50 (HSF-PLA2),also measured
"CCCCCCCCC(O)COc1cc(OCC(O)CCCCCCCC)cc(N(CC(=O)O)CC(=O)O)c1 (racemic) [Example 6h, rac-N-(carboxymethyl)-N-[3,5-bis[[2-hydroxydecyl)oxy]phenyl]glycine]",5%,500 nM,–
CCCCCCCCCCOc1cc(OCCCCCCCCCC)cc(N(CC(=O)OCC(=O)N(CCO)CCO)CC(=O)OCC(=O)N(CCO)CCO)c1 [Example 131],18%,–,% Inhib of Croton Oil Mouse Ear Edema (1 mg) [1]: 47%
"CCCCCCCCCCCCCCNC(=O)c1cc(C(=O)NCCCCCCCCCCCCCC)cc(N(CC(=O)O)CC(=O)O)c1 [Example 6q, N-(carboxymethyl)-N-[3,5-bis[(tetradecylamino)carbonyl]phenyl]glycine]",0%,300 nM,–
"CCCCCCCCCCCCCCCCCCOc1cc(OCCOCCOCCOCCOC)cc(N(CC(=O)O)CC(=O)O)c1 [Example 156, N-(Carboxymethyl)-N-[3-[2-[2-(2-methoxyethoxy)ethoxy]ethoxy]ethoxy]-5-(octadecyloxy)phenyl glycine]",29%,–,inhibition at 1 µM (HSF-PLA2; [2]): 100%
"CCCCCCCCCCCCCCCCCCOc1cccc(NCC(=O)O)c1 [Example 125, N-[3-(Octadecyloxy)phenyl]glycine]",–,–,"inhibition at 10 µM (HSF-PLA2; (10 μM), read-out: Inhib of HSF-PLA2, % inhibition): 55%; % Inhib of Croton Oil Mouse Ear Edema (1 mg) [1]: 75%"
"CCCCCCCCCCCCCCNC(=O)Oc1ccc(N(CC(=O)O)CC(=O)O)cc1OC(=O)NCCCCCCCCCCCCCC [Example 119e, N-(carboxymethyl)-N-[3,4-bis[[(tetradecylamino)carbonyl]oxy]phenyl]glycine]",–,–,inhibition at 1 µM (HSF-PLA2; [2]): 33%; % Inhib of Croton Oil Mouse Ear Edema (1 mg) [1]: 0%
"CCCCCCCCCCCCCCCCCCOc1cc(SC)cc(N(CC(=O)O)CC(=O)O)c1 [Example 166, N-(Carboxymethyl)-N-[3-(methylthio)-5-(octadecyloxy)phenyl]glycine]",31%,–,inhibition at 1 µM (HSF-PLA2; [2]): 88%
"CCCCCCOc1cc(OCCCCCC)cc(N(CC(=O)O)CC(=O)O)c1 [Example 6b, N-(carboxymethyl)-N-[3,5-bis(hexyloxy)phenyl]glycine]",25%,2100 nM,–
CCCCCCCCCCCCCCCCCCOc1cc(NC(C)=O)cc(N(CC(=O)O)CC(=O)O)c1 [Example 98],51%,–,inhibition at 1 µM (HSF-PLA2; [2]): 98%
"CCCCCCCCCCOc1cc(OCCCCCCCCCC)cc(N(CC(=O)O)CC(=O)OC)c1 [Example 31, N-(2-Methoxy-2-oxoethyl)-N-[3,5-bis(decyloxy)phenyl]glycine]",21%,–,% Inhib of Croton Oil Mouse Ear Edema (1 mg) [1]: 50%
"CCCCCCCCCCCCCCCCCCOc1cc(N(CC(=O)O)CC(=O)O)cc([S+](C)[O-])c1 (centres unmarked) [Example 172, N-(Carboxymethyl)-N-[3-(methylsulfinyl)-5-(octadecyloxy)phenyl]glycine]",43%,–,inhibition at 1 µM (HSF-PLA2; [2]): 39%
"O=C(O)CN(CC(=O)O)c1cc(OCCCc2ccccc2)cc(OCCCc2ccccc2)c1 [Example 6g, N-(carboxymethyl)-N-[3,5-bis(3-phenylpropoxy)phenyl]glycine]",26%,1300 nM,–
"CCCCCCCCCCOc1cc(OCCCCCCCCCC)cc(N(CC(=O)OCCN(CC)CC)CC(=O)OCCN(CC)CC)c1 [Example 130, N-[3,5-bis(Decyloxy)phenyl]-N-[2-[2-(diethylamino)ethoxy]-2-oxoethyl]glycine 2-(diethylamino)ethyl ester dihydrochloride]",2%,–,–
CCCCCCCCCCCCCCCCCCOc1cc(OCCCOc2ccc(C(=O)O)cc2)cc(N(CC(=O)O)CC(=O)O)c1 [Example 58p],–,600 nM,% Inhib of Croton Oil Mouse Ear Edema (1 mg) [1]: 0%
"CCCCCCCCCCCCCCCc1cccc(OCCCOc2cccc(N(CC(=O)O)CC(=O)O)c2)c1 [Example 36i, N-(carboxymethyl)-N-[3-{3-(3-pentadecylphenoxy)propoxy]phenyl]glycine]",7%,400 nM,–
"CCCCCCCCCCCCCCCCCCOc1cc(NCC(=O)O)cc(OC(=O)C23CC4CC(CC(C4)C2)C3)c1 [Example 175, N-[[3-(Octadecyloxy)-5-(tricyclo[3.3.1.1/3.7/]dec-1-ylcarbonyl)oxy]phenyl]glycine]",–,300 nM,–

Structure (SMILES),inhibition in vivo at 30 mg/kg (PLA2 Rat Paw Edema),IC50 (HSF-PLA2),also measured
CCCCCCCCCCCCCCCCCCOc1cc(OCCCOc2cccnc2)cc(N(CC(=O)O)CC(=O)O)c1 [Example 58i],–,300 nM,–
"CCCCCCCCCCOc1cc(OCCCCCCCCCC)cc(N(CC(=O)OCOC(C)=O)CC(=O)OCOC(C)=O)c1 [Example 132, N-[2-[(Acetyloxy)methoxy]-2-oxoethyl]-N-[3,5-bis(decyloxy)phenyl]glycine (acetyloxy)methyl ester]",–,–,% Inhib of Croton Oil Mouse Ear Edema (1 mg) [1]: 36%
"CCCCC/C=C\C/C=C\CCCCCCCCOc1cccc(N(CC(=O)O)CC(=O)O)c1 [Example 49, N-(carboxymethyl)-N-[3-[(9Z,12Z)-(9,12-octadecadienyl]oxy]phenyl]glycine]",–,200 nM,–
"O=C(O)CN(CC(=O)O)c1cc(OCCOc2cccc3ccccc23)cc(OCCOc2cccc3ccccc23)c1 [Example 6p, N-(carboxymethyl)-N-[3,5-bis[2-[1-naphthalenyloxy)]ethoxy]glycine]",–,2000 nM,–
"CCCCC/C=C\C/C=C\CCCCCCCC(=O)Nc1cccc(N(CC(=O)O)CC(=O)O)c1 [Example 51, N-(carboxymethyl)-N-[3-[(9Z,12Z)-(1-oxo-9,12-octadecadienyl)amino]phenyl]glycine]",–,–,inhibition at 5 µM (HSF-PLA2; [2]): 67%
"CCCCOc1cc(OCCCC)cc(N(CC(=O)O)CC(=O)O)c1 [Example 6a, N-[3,5-bis(butoxy)phenyl]-N-(carboxymethyl)glycine]",33%,2000 nM,–
"CCCCCCCCCCCCCCCCCCOc1cc(OC(=O)C23CC4CC(CC(C4)C2)C3)cc(N(CC(=O)O)CC(=O)O)c1 [Example 58f, N-(Carboxymethyl)-N-[[3-(octadecyloxy)-5-(tricyclo[3.3.1.1/3,7]dec-1-ylcarbonyl)oxy]phenyl]glycine]",–,300 nM,–
CCCCCCCC/C=C\CCCCCCCC(=O)Nc1cccc(N(CC(=O)O)CC(=O)O)c1 [Example 51],–,–,inhibition at 5 µM (HSF-PLA2; [2]): 63%
"O=C(O)CCCCOc1cc(OCCCCC(=O)O)cc(N(CC(=O)O)CC(=O)O)c1 [Example 6i, N-(carboxymethyl)-N-[3,5-bis[(5-hydroxy-5-oxopentyl)oxy]phenyl]glycine]",–,–,inhibition at 20 µM (HSF-PLA2; [2]): 6%
"CCCCCCCCCCCCCC(=O)Oc1ccc(N(CC(=O)O)CC(=O)O)cc1OC(=O)CCCCCCCCCCCCC [Example 119b, N-(carboxymethyl)-N-[3,4-bis[(1-oxotetradecyl)oxy]phenyl]glycine]",–,–,inhibition at 1 µM (HSF-PLA2; [2]): 80%; % Inhib of Croton Oil Mouse Ear Edema (1 mg) [1]: 75%
CCCCCCCCCCCCCCCCCCOc1cc(OC(C)=O)cc(N(CC(=O)O)CC(=O)O)c1 [Example 80],–,220 nM,–
"O=C(O)CN(CC(=O)O)c1ccccc1 [Example 39a, N-(carboxymethyl)-N-phenylglycine]",–,–,inhibition at 20 µM (HSF-PLA2; [2]): -10%
"CCCCc1ccc(N(CC(=O)O)CC(=O)O)cc1 [Example 39b, N-(carboxymethyl)-N-(4-butylphenyl)glycine]",-9%,264000 nM,–
O=C(O)CN(CC(=O)O)c1cc(OCCCOc2ccc(-c3ccccc3)cc2)cc(OCCCOc2ccc(-c3ccccc3)cc2)c1 [Example 6n],–,400 nM,–
O=C(O)CN(CC(=O)O)c1cc(OCCCOc2cccc(-c3ccccc3)c2)cc(OCCCOc2cccc(-c3ccccc3)c2)c1 [Example 6m],–,580 nM,–
"CCCCCCCCCCCCCCCCCCNC(=O)Oc1ccc(N(CC(=O)O)CC(=O)O)cc1OC(=O)NCCCCCCCCCCCCCCCCCC [Example 119d, N-(carboxymethyl)-N-[3,4-bis[[(octadecylamino)carbonyl]oxy]phenyl]glycine]",–,–,inhibition at 1 µM (HSF-PLA2; [2]): 19%; % Inhib of Croton Oil Mouse Ear Edema (1 mg) [1]: 14%
